What was measured:
Settings in all cases: 72 h
HepG2 [1] = test: cell viability relative to DMSO; higher = less toxic
Calu-3 [2] = test: as above
Caco-2 [3] = test: as above
Vero E6 [4] = test: as above
HepG2 [5] = test: relative viability EC50 (midpoint between 100% and the lowest measured viability); higher = less toxic
Calu-3 [6] = test: as above
Caco-2 [7] = test: as above
Vero E6 [8] = test: as above
HepG2 [9] = test: drug sensitivity score (DSS) for viability; higher = more toxic; extreme values may be limits of the assay
Calu-3 [10] = test: as above
Caco-2 [11] = test: as above
Vero E6 [12] = test: as above
U2OS [13] = test: cell viability relative to DMSO; higher = less toxic
U2OS [14] = test: relative viability EC50 (midpoint between 100% and the lowest measured viability); higher = less toxic
U2OS [15] = test: drug sensitivity score (DSS) for viability; higher = more toxic; extreme values may be limits of the assay

Compound	cell viability (HepG2 [1]; 1 nM) [%]	cell viability (HepG2 [1]; 10 nM) [%]	cell viability (HepG2 [1]; 100 nM) [%]	cell viability (HepG2 [1]; 1000 nM) [%]	cell viability (HepG2 [1]; 10000 nM) [%]	cell viability (Calu-3 [2]; 1 nM) [%]	cell viability (Calu-3 [2]; 10 nM) [%]	cell viability (Calu-3 [2]; 100 nM) [%]	cell viability (Calu-3 [2]; 1000 nM) [%]	cell viability (Calu-3 [2]; 10000 nM) [%]	cell viability (Caco-2 [3]; 1 nM) [%]	cell viability (Caco-2 [3]; 10 nM) [%]	cell viability (Caco-2 [3]; 100 nM) [%]	cell viability (Caco-2 [3]; 1000 nM) [%]	cell viability (Caco-2 [3]; 10000 nM) [%]	cell viability (Vero E6 [4]; 1 nM) [%]	cell viability (Vero E6 [4]; 10 nM) [%]	cell viability (Vero E6 [4]; 100 nM) [%]	cell viability (Vero E6 [4]; 1000 nM) [%]	cell viability (Vero E6 [4]; 10000 nM) [%]	relative viability EC50 (HepG2 [5]) [µM]	relative viability EC50 (Calu-3 [6]) [µM]	relative viability EC50 (Caco-2 [7]) [µM]	relative viability EC50 (Vero E6 [8]) [µM]	drug sensitivity score (HepG2 [9])	drug sensitivity score (Calu-3 [10])	drug sensitivity score (Caco-2 [11])	drug sensitivity score (Vero E6 [12])	cell viability (U2OS [13]; 1 nM) [%]	cell viability (U2OS [13]; 10 nM) [%]	cell viability (U2OS [13]; 100 nM) [%]	cell viability (U2OS [13]; 1000 nM) [%]	cell viability (U2OS [13]; 10000 nM) [%]	relative viability EC50 (U2OS [14]) [µM]	drug sensitivity score (U2OS [15])
C#C[C@]1(O)CC[C@H]2[C@@H]3CCC4=CC(=O)CC[C@@H]4[C@H]3CC[C@@]21C [Norethindrone (Norethisterone)]	103	89.5	94.1	100	114	103	105	93.9	110	99.9	94	103	97	101	116	98.4	97.4	94.6	93.6	109	> 10	> 10	> 10	> 10	0	0	0	0	–	–	–	–	–	–	–
CCOC(=O)c1ccc(OC(=O)CCCCCNC(=N)N)cc1 [gabexate]	97.1	115	96.9	95.6	103	88.1	95.9	84.8	86.9	87.1	94.2	95.6	99.2	95.2	89.4	101	104	98	98.4	100	> 10	> 10	> 10	> 10	0	1.4	0	0	–	–	–	–	–	–	–
CCS(=O)(=O)Nc1ccc2c(c1)/C(=C(/Nc1ccc(CN3CCCCC3)cc1)c1ccccc1)C(=O)N2 [hesperadin]	99.1	94.4	58.8	8.8	5.1	107	95.7	84.8	70.3	62.1	95.1	91.8	90.7	68.7	48.4	92.7	101	82.7	73.2	16.9	0.119	–	0.512	1.52	21.5	6.8	6.9	7.6	102	94.3	80	22.1	0	0.329	16.9
COc1cccc(Nc2ncnn3ccc(CN4CC[C@@H](N)[C@H](O)C4)c23)c1	105	102	102	99	87.9	103	94.4	46.5	23.7	9.1	89.2	91	81.2	76.1	48.6	100	89.4	65.7	51.4	14.8	> 10	0.0837	0.335	0.292	0.1	21.9	7.5	14.4	96.2	96.5	93.2	92.6	55.7	–	3.5
CC[C@H]1CN2CC[C@H]1C[C@@H]2[C@@H](O)c1ccnc2ccc(OC)cc12 [hydroquinidine]	91.7	95.1	101	89.1	93.1	–	–	–	–	–	105	106	94.6	94.7	87.4	97.4	102	103	107	91	> 10	–	> 10	> 10	0	–	0.1	0	99.9	99.4	97.3	97.8	98.6	> 10	0
O=C(CC1NCCCC1O)Cn1cnc2cc(Br)c(Cl)cc2c1=O (configuration not stated) [halofuginone]	102	88.9	24.1	2.9	0.6	–	–	–	–	–	95	107	81.7	28.6	25.1	99.7	100	42	11.4	0	0.0439	–	0.183	0.0842	27.9	–	15.7	24.5	98.9	101	98.1	32.2	1.9	0.678	13.4
Cl/C=C\C[N+]12CN3CN(CN(C3)C1)C2 [1-((Z)-3-chloroallyl)-1,3,5,7-tetraazaadamantan-1-ium]	102	104	109	102	97.7	–	–	–	–	–	96.3	97.9	91.5	97.4	95.8	99.5	99	99.4	95.5	104	> 10	–	> 10	> 10	0	–	0	0	94.5	99.8	94.7	102	97.5	> 10	0
CC(C)(C)n1nc(-c2cccc3ccccc23)c2c(N)ncnc21 [1-naphthyl-PP1]	115	115	95.6	105	82.8	91.6	104	98.4	100	73	104	93.1	98.6	101	86.1	107	99	103	110	78.6	> 10	–	> 10	> 10	0.2	1.1	0.1	0.4	100	96.4	109	94.4	75.6	> 10	1.7
N=C(N)c1ccc(-c2ccc(-c3ccc(C(=N)N)cc3)o2)cc1 [furamidine]	109	97.2	96.4	79.9	59.7	92.6	104	97.1	96.4	110	97	92.8	98.1	101	95	99.7	97.3	97.9	97.8	102	–	> 10	> 10	> 10	4.1	0	0	0	–	–	–	–	–	–	–
CCOc1ccn(-c2ccc(F)cc2)c(=O)c1C(=O)Nc1ccc(Oc2ccnc(N)c2Cl)c(F)c1	110	116	108	96.9	68.5	93.5	103	101	96.1	94	101	90.4	90.3	103	75.1	103	99.1	101	98.8	81.5	–	> 10	> 10	> 10	1.9	0	0.8	0.6	102	98.4	103	99.2	98	> 10	0
CC(C)(C)NCC(O)c1ccccc1Cl (configuration not stated) [tulobuterol]	–	–	–	–	–	94.6	91.1	99.4	111	88.4	93.7	89.8	88.1	79.8	95.6	96.9	98.2	99.7	96.2	87	–	> 10	> 10	> 10	–	0	0	0.3	99.7	95.5	102	101	98.6	> 10	0
CCC1(C2=NCCN2)Cc2ccccc2O1 (configuration not stated) [efaroxan]	–	–	–	–	–	109	93.4	109	101	110	102	96.7	97.1	90.4	98.7	102	101	101	98.4	106	–	> 10	> 10	> 10	–	0	0	0	107	107	101	95.8	101	> 10	0
Cc1ccnc2c1NC(=O)c1cccnc1N2C1CC1 [nevirapine]	–	–	–	–	–	104	90.6	109	96.8	87.8	87.3	86.8	101	97	100	94.3	107	96.5	104	108	–	> 10	> 10	> 10	–	0.2	0	0	97.2	101	101	101	98.9	> 10	0
COc1ccc2[nH]c(C(=O)c3ccccc3)cc2c1	99.2	92.7	94.8	36.4	29.6	107	104	89.3	67.8	56.2	95	108	62.1	55.4	43.2	95.1	97.9	79.6	30.5	26.6	0.338	–	0.0765	0.178	12.4	6.8	14.9	15.3	96.5	99.9	91.5	37.3	23.3	0.383	12.7
OC(CCCN1CCN(c2ncc(F)cn2)CC1)c1ccc(F)cc1 (configuration not stated)	95.8	100	98.3	96	97.5	107	99.7	102	104	94.7	98.4	99.1	101	94.2	95.7	101	98.1	94.9	99	95.4	> 10	> 10	> 10	> 10	0	0	0	0	–	–	–	–	–	–	–
CC(=O)NC[C@H]1CN(c2ccc(N3CCN(C(=O)CO)CC3)c(F)c2)C(=O)O1 [eperezolid]	99.1	98.7	89.1	88.2	81.1	–	–	–	–	–	98.6	96.9	102	101	102	96.3	99.3	97.5	97.1	93.5	> 10	–	> 10	> 10	1.7	–	0	0	105	99.4	99.3	96.4	98.6	> 10	0
